Laboratory results as given in paper PMC10600247, “Impact of C- and N-terminal protection on the stability, metal chelation and antimicrobial properties of calcitermin” (Scientific Reports, 2023).
Residues, ends and D or L forms follow the SMILES beside them.

What was measured:
C. albicans (ATCC 10231) = assay: In vitro antifungal CFU assay; type: cell-based, Candida albicans; conditions: pH 5.4; for mean CFU number ± S.D.: per 0.1 mL
Method in brief: (§1)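 Peptides (final 0.128, 0.064, 0.032 mg/mL), alone or with ZnCl2 or CuCl2 at M:L 0.9:1, were incubated with 10^3 CFU/well in PBS pH 5.4 plus 1.5% TSB at 37 °C with slow rocking for 3 and 24 h. Aliquots were plated on TSA and CFU counted after 24 h; triplicate.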

E. coli (ATCC 25922) = assay: In vitro anti-E. coli CFU assay; type: cell-based, Escherichia coli; conditions: pH 5.4; for mean CFU number ± S.D.: per 0.1 mL
Method in brief: as §1

[1] = peptide 0.032 mg/mL + CuCl2 (0.9:1), 3 h
[2] = peptide 0.032 mg/mL + CuCl2 (0.9:1), 24 h
[3] = peptide 0.032 mg/mL + ZnCl2 (0.9:1), 3 h
[4] = peptide 0.032 mg/mL + ZnCl2 (0.9:1), 24 h
[5] = peptide 0.064 mg/mL + CuCl2 (0.9:1), 3 h
[6] = peptide 0.064 mg/mL + CuCl2 (0.9:1), 24 h
[7] = peptide 0.064 mg/mL + ZnCl2 (0.9:1), 3 h
[8] = peptide 0.064 mg/mL + ZnCl2 (0.9:1), 24 h
[9] = peptide 0.128 mg/mL + CuCl2 (0.9:1), 3 h
[10] = peptide 0.128 mg/mL + CuCl2 (0.9:1), 24 h
[11] = peptide 0.128 mg/mL + ZnCl2 (0.9:1), 3 h, listed as WT calcitermin
[12] = peptide 0.128 mg/mL + ZnCl2 (0.9:1), 3 h
[13] = peptide 0.128 mg/mL + ZnCl2 (0.9:1), 24 h
[14] = peptide alone 0.032 mg/mL, 24 h
[15] = peptide alone 0.064 mg/mL, 24 h
[16] = peptide alone 0.128 mg/mL, 24 h

For `CC[C@H](C)[C@H](NC(=O)[C@H](C)NC(=O)[C@@H](N)C(C)C)C(=O)N[C@@H](C)C(=O)N[C@@H](CC(C)C)C(=O)N[C@@H](CCCCN)C(=O)N[C@@H](C)C(=O)N[C@@H](C)C(=O)N[C@@H](Cc1c[nH]cn1)C(=O)N[C@@H](Cc1ccc(O)cc1)C(=O)N[C@@H](Cc1c[nH]cn1)C(=O)N[C@H](C(=O)N[C@@H](Cc1c[nH]cn1)C(=O)N[C@@H](CCCCN)C(=O)N[C@@H](CCC(=O)O)C(=O)O)[C@@H](C)O` [WT, VAIALKAAHYHTHKE, reference compound] (H-VAIALKAAHYHTHKE-OH), the “CFU decrease/increase with respect to untreated controls” value (“CFU decrease/increase” below) (C. albicans (ATCC 10231); [1]) was -12%, the “mean CFU number ± S.D.” value (C. albicans (ATCC 10231); [1]) was 74 ± 28 CFU and the “CFU decrease/increase” value (C. albicans (ATCC 10231); [2]) was -0.4%. The “mean CFU number ± S.D.” value (C. albicans (ATCC 10231); [2]) was 1,771 ± 309 CFU, the “CFU decrease/increase” value (C. albicans (ATCC 10231); [3]) was -20% and the “mean CFU number ± S.D.” value (C. albicans (ATCC 10231); [3]) was 67 ± 35 CFU. The “CFU decrease/increase” value (C. albicans (ATCC 10231); [4]) was -31%, the “mean CFU number ± S.D.” value (C. albicans (ATCC 10231); [4]) was 1,235.8 ± 235 CFU and the “CFU decrease/increase” value (C. albicans (ATCC 10231); [5]) was “+1%”. The “mean CFU number ± S.D.” value (C. albicans (ATCC 10231); [5]) was 85 ± 24 CFU, the “CFU decrease/increase” value (C. albicans (ATCC 10231); [6]) was -16% and the “mean CFU number ± S.D.” value (C. albicans (ATCC 10231); [6]) was 1,489 ± 111 CFU. The “CFU decrease/increase” value (C. albicans (ATCC 10231); [7]) was -43%, the “mean CFU number ± S.D.” value (C. albicans (ATCC 10231); [7]) was 48.3 ± 22 CFU and the “CFU decrease/increase” value (C. albicans (ATCC 10231); [8]) was -58%. For the same compound, the “mean CFU number ± S.D.” value (C. albicans (ATCC 10231); [8]) was 754.3 ± 323 CFU, the “CFU decrease/increase” value (C. albicans (ATCC 10231); [9]) was -35% and the “mean CFU number ± S.D.” value (C. albicans (ATCC 10231); [9]) was 55 ± 11 CFU. The “CFU decrease/increase” value (C. albicans (ATCC 10231); [10]) was -0.6%, the “mean CFU number ± S.D.” value (C. albicans (ATCC 10231); [10]) was 1,790 ± 393 CFU and the “CFU decrease/increase” value (C. albicans (ATCC 10231); [11]) was -49%. The “mean CFU number ± S.D.” value (C. albicans (ATCC 10231); [12]) was 42.7 ± 11 CFU, the “CFU decrease/increase” value (C. albicans (ATCC 10231); peptide 0.128 mg/mL + ZnCl2 (0.9:1), 24 h, listed as WT calcitermin) was -96% and the “mean CFU number ± S.D.” value (C. albicans (ATCC 10231); [13]) was 62.8 ± 33 CFU. For the same compound, the “CFU decrease/increase” value (C. albicans (ATCC 10231); peptide alone 0.032 mg/mL, 3 h, listed as WT calcitermin) was -67%, the “mean CFU number ± S.D.” value (C. albicans (ATCC 10231); peptide alone 0.032 mg/mL, 3 h) was 28 ± 15 CFU and the “CFU decrease/increase” value (C. albicans (ATCC 10231); [14]) was -24%. The “mean CFU number ± S.D.” value (C. albicans (ATCC 10231); [14]) was 1,348± 698 CFU, the “CFU decrease/increase” value (C. albicans (ATCC 10231); peptide alone 0.064 mg/mL, 3 h, listed as WT calcitermin) was -67% and the “mean CFU number ± S.D.” value (C. albicans (ATCC 10231); peptide alone 0.064 mg/mL, 3 h) was 28 ± 15 CFU. The “CFU decrease/increase” value (C. albicans (ATCC 10231); [15]) was -33%, the “mean CFU number ± S.D.” value (C. albicans (ATCC 10231); [15]) was 1,289 ± 495 CFU and the “CFU decrease/increase” value (C. albicans (ATCC 10231); peptide alone 0.128 mg/mL, 3 h, listed as WT calcitermin) was -73%. The “mean CFU number ± S.D.” value (C. albicans (ATCC 10231); peptide alone 0.128 mg/mL, 3 h) was 22.4 ± 15 CFU, the “CFU decrease/increase” value (C. albicans (ATCC 10231); [16]) was -41% and the “mean CFU number ± S.D.” value (C. albicans (ATCC 10231); [16]) was 1,052 ± 531 CFU. For the same compound, the “CFU decrease/increase” value (E. coli (ATCC 25922); peptide 0.032 mg/mL + CuCl2 (0.9:1), 3 h, listed as WT calcitermin) was -38%, the “mean CFU number ± S.D.” value (E. coli (ATCC 25922); [1]) was 505 ± 26 CFU and the “CFU decrease/increase” value (E. coli (ATCC 25922); [2]) was -21%. For the same compound, the “mean CFU number ± S.D.” value (E. coli (ATCC 25922); [2]) was 191 ± 23 CFU, the “CFU decrease/increase” value (E. coli (ATCC 25922); peptide 0.032 mg/mL + ZnCl2 (0.9:1), 3 h, listed as WT calcitermin) was -38% and the “mean CFU number ± S.D.” value (E. coli (ATCC 25922); [3]) was 499 ± 104 CFU. For the same compound, the “CFU decrease/increase” value (E. coli (ATCC 25922); [4]) was -7%, the “mean CFU number ± S.D.” value (E. coli (ATCC 25922); [4]) was 224 ± 8 CFU and the “CFU decrease/increase” value (E. coli (ATCC 25922); peptide 0.064 mg/mL + CuCl2 (0.9:1), 3 h, listed as WT calcitermin) was -56%. The “mean CFU number ± S.D.” value (E. coli (ATCC 25922); [5]) was 360 ± 97 CFU, the “CFU decrease/increase” value (E. coli (ATCC 25922); [6]) was -11% and the “mean CFU number ± S.D.” value (E. coli (ATCC 25922); [6]) was 215 ± 17 CFU. The “CFU decrease/increase” value (E. coli (ATCC 25922); peptide 0.064 mg/mL + ZnCl2 (0.9:1), 3 h, listed as WT calcitermin) was -55%, the “mean CFU number ± S.D.” value (E. coli (ATCC 25922); [7]) was 368 ± 18 CFU and the “CFU decrease/increase” value (E. coli (ATCC 25922); [8]) was “+3%”. For the same compound, the “mean CFU number ± S.D.” value (E. coli (ATCC 25922); [8]) was 249 ± 9 CFU, the “CFU decrease/increase” value (E. coli (ATCC 25922); peptide 0.128 mg/mL + CuCl2 (0.9:1), 3 h, listed as WT calcitermin) was -91.1% and the “mean CFU number ± S.D.” value (E. coli (ATCC 25922); [9]) was 72 ± 44 CFU. The “CFU decrease/increase” value (E. coli (ATCC 25922); peptide 0.128 mg/mL + CuCl2 (0.9:1), 24 h, listed as WT calcitermin) was -82%, the “mean CFU number ± S.D.” value (E. coli (ATCC 25922); [10]) was 42 ± 12 CFU and the “CFU decrease/increase” value (E. coli (ATCC 25922); [11]) was -91%. For the same compound, the “mean CFU number ± S.D.” value (E. coli (ATCC 25922); [12]) was 74 ± 17 CFU, the “CFU decrease/increase” value (E. coli (ATCC 25922); [13]) was -8% and the “mean CFU number ± S.D.” value (E. coli (ATCC 25922); [13]) was 222 ± 16 CFU. The “CFU decrease/increase” value (E. coli (ATCC 25922); peptide alone 0.032 mg/mL, 3 h) was -12%, the “mean CFU number ± S.D.” value (E. coli (ATCC 25922); peptide alone 0.032 mg/mL, 3 h) was 718 ± 138 CFU and the “CFU decrease/increase” value (E. coli (ATCC 25922); [14]) was -7%. For the same compound, the “mean CFU number ± S.D.” value (E. coli (ATCC 25922); [14]) was 224 ± 21 CFU, the “CFU decrease/increase” value (E. coli (ATCC 25922); peptide alone 0.064 mg/mL, 3 h) was -19% and the “mean CFU number ± S.D.” value (E. coli (ATCC 25922); peptide alone 0.064 mg/mL, 3 h) was 659 ± 139 CFU. The “CFU decrease/increase” value (E. coli (ATCC 25922); [15]) was “+14%”, the “mean CFU number ± S.D.” value (E. coli (ATCC 25922); [15]) was 275 ± 16 CFU and the “CFU decrease/increase” value (E. coli (ATCC 25922); peptide alone 0.128 mg/mL, 3 h) was “+42%”. The “mean CFU number ± S.D.” value (E. coli (ATCC 25922); peptide alone 0.128 mg/mL, 3 h) was 1155 ± 270 CFU, the “CFU decrease/increase” value (E. coli (ATCC 25922); [16]) was -3% and the “mean CFU number ± S.D.” value (E. coli (ATCC 25922); [16]) was 233 ± 10 CFU.
